Laboratory results: a melting point compilation (Tetko et al.; mined from patent text by program, amines drawn as free bases though some values may be those of a salt)

| melting point [°C] | SMILES |
| --- | --- |
| 95 to 97 | Cc1ccc(S(=O)(=O)OCC2Cc3cc(C(F)(F)F)cc(Br)c3O2)cc1 (stereo not given) |
| 220 to 222 | Cc1ccn2c(=O)c(C(=O)NC3CCCC3)cnc2c1 |
| 123 to 125 | COc1cc(Oc2cccc(C(F)(F)F)c2)nc(C(=O)NC=C(Cl)Cl)c1 |
| 138 to 139 | COC(=O)c1c(Cl)nc(N2CCC(O)CC2)nc1NCc1ccc(OC)c(Cl)c1 |
| 100 to 101 | COc1cc(OC)c(-c2cccs2)cc1/C=C/C(=O)c1ccc(S(=O)(=O)NCC(=O)O)cc1 |
| 147 to 148 | COc1ccc(C(=O)NNC(=O)C(F)(F)F)cc1 |
| 110 to 112 | CC=NN(C(=O)c1ccccc1)c1ccc(OC)c(F)c1 |
| 152 to 153 | COC(=O)c1nc(-c2ccc(F)c(C)c2F)cc(NC(C)=O)c1Cl |
| 195 | COc1ccc(Cl)cc1C(=O)NCCc1ccc(-c2ccc(F)cc2)c(S(N)(=O)=O)c1 |
| 68 to 71 | CCCCNC(=S)c1cccc(NC(=O)N(C)C)c1 |
| 143 to 152 | COC(=O)c1cc(N)c(C(F)(F)F)cc1NC(C)=O |
| 180 to 183 | COc1ccc(C(=O)NCCc2ccc(-c3ccc(OC(C)(C)C(=O)O)cc3)cc2)cc1 |
| 177 to 178 | O=C1CSC(=S)N1c1cccc(C(F)(F)F)c1 |
| 184 to 187 | CCCc1c(C(=O)O)c(=O)cc(-c2ccc(Cl)cc2)n1C |
| 132 | CCN(CC)C(=O)C=Cc1cc(OC)c(OC)c(OC)c1 |
| 178 to 179 | OC1CCc2cccc(Nc3cc(-c4ccc(C(F)(F)F)cc4)ncn3)c2C1 (stereo not given) |

Second part, the compound before the results:

| SMILES | melting point [°C] |
| --- | --- |
| Cc1cc(C=CC#N)cc(Oc2c(C(C)C)c(=O)[nH]c(=O)n2Cc2ccnc(N3C(=O)c4ccccc4C3=O)c2)c1 | 229 to 231 |
| N#CNC1NN=C(c2ccc3ccccc3c2)O1 (stereo not given) | > 250 |
| O=c1oc2cc(N3CCN(CCF)CC3)ccc2cc1-c1nc2ccccc2s1 | 246 |
| O=C(N[C@@H](Cc1ccc(C(=O)c2ccccc2)cc1)C(=O)O)OCC1c2ccccc2-c2ccccc21 | 115 to 117 |
| CC(C)(C)OC(=O)N1CCc2c(n(CCOc3ccccc3)c3ccc(Cl)c(Cl)c23)CC1 | 175 to 176 |
| CC(=O)C(=C1SCCCN1Br)[N+](=O)[O-] | 101 to 104 |
| C=C=Cc1c(C)nc2c(OCc3ccccc3C)cccn12 | 88 to 89 |
| CN(C)CC(O)COc1ccccc1CCCCc1ccccc1C(N)=O (stereo not given) | 149 to 151 |
| CCCc1nc2cnc3ccccc3c2n1CCC1(O)CCOCC1 | 186 to 188 |
| c1ccc(C2CNc3ccccc3O2)cc1 (stereo not given) | 113 to 116 |
| CC(=O)[C@H]1CC[C@H](c2ccc(Cl)cc2)CC1 | 74.6 |
| CCCCCc1c(C(C)C)nc(C(C)C)c(CO)c1-c1ccc(F)cc1 | 100 to 101 |
| Cc1c(Sc2ccc(Cl)cc2)nn(-c2ccc(Oc3ccccc3)cc2)c(=O)c1C#N | 164 |
| Cc1c(CNCC(C)(C)C)n(C)c2ccc(NC(=O)c3ccc(OC[C@@H]4CCCO4)cc3)cc12 | 165 to 166 |
| Nc1nc2c([nH]c(=S)n2Cc2cccs2)c(=O)[nH]1 | > 280 |
| O=Cc1cc(-c2ccccc2)nn1Cc1ccc(Cl)cc1Cl | 135 to 137 |
| CC1CCc2c(c3c(O)cc(C(C)CCCc4ccc(F)cc4)cc3oc2=O)C1 (stereo not given) | 127 to 129 |
| CC(C)Cn1cc(C(=O)O)c2ccc(Cl)cc21 | 205 to 206 |
| Clc1ccn(-c2cccnc2)n1 | 98 to 106 |
| CCOC(=O)C(=NOCCI)c1csc(NC(c2ccccc2)(c2ccccc2)c2ccccc2)n1 | 110 |
| Cn1nnnc1-c1ccc2oc3ncccc3c(=O)c2c1 | 248 |
| O=c1ccn(C2C=CC(CO)O2)c(=O)[nH]1 (stereo not given) | 150 to 151 |
| Cc1csc(-c2cc3cccc(NS(=O)(=O)c4cccs4)c3[nH]2)n1 | 181 to 183 |
| CCCCc1nc2c(N)nc3ccccc3c2n1CCCCNC(=O)Nc1ccccc1 | 185 to 187 |
